The source of these data is US20230053297A1, “COMPOSITIONS AND METHODS TO INCREASE SERUM DILEUCINE LEVELS” (Ingenious Ingredients, LP, priority 2021, published 2023).

The nature of this series: Plasma dileucine pharmacokinetics after a single dose of leucine or whey protein isolate in healthy men. The note with it: male, human, in vivo. As for the experimental part: Five healthy men between the ages of 18-50 years of age were recruited to participate in this study. Prior to beginning the study, all participants signed an informed consent document and complete a healthy history questionnaire to determine study eligibility.
All participants reported to the laboratory between 06:00-10:00 hours and observing an 8-10 hour fast. For the two days prior to testing, study participants were given a standardized meal plan to help control for changes in dietary intake prior to testing. Upon arrival, participants heart rate, blood pressure, body mass, height and body composition were measured using DEXA. Prior to body composition assessment, study participants were tested for appropriate hydration status. Using standard multiple sample phlebotomy approaches, approximately 10 mL of venous blood was collected from a forearm vein prior to being administrated a single dose of either leucine (2-gram dose) or whey protein isolate (25-gram dose). In a time course fashion, subsequent venous blood samples were collected 30, 60, 90, 120 and 240 minutes after ingestion of their assigned supplement. Participants were provided 250 mL of cold water to ingest after each blood collection. Study participants returned approximately 3-7 days after completion of the previous study visit to complete an identical testing session as previously described while receiving the alternative treatment.

With `CC(C)C[C@H](N)C(=O)O` [leucine], the “AUC Dileucine” value was determined as 37.1 ± 20.2 µM·h, the peak level (Cmax) was 610 ± 430 nM and the “increase of plasma dileucine levels compared to whey protein (as AUC)” value worked out at 40.5%.

For orientation: Cmax means the highest concentration seen after dosing.
